The record followed here is patent US9802880B2, “Cannabigerol derivatives” (VIVACELL BIOTECHNOLOGY ESPAÑA S.L., priority 2014, dated 2017).

In data set [1] the test system is PPARg. Put plainly: PPARg transactivation assay in human dermal primary fibroblasts. The note with it: 6 h treatment, FIG. 2. The format is cell-based. From the text: FIG. 2. PPARg Transactivation Assays in Human Dermal Primary Fibroblasts.
The test system of data set [2] is PPARg. Put plainly: PPARg transactivation assay in HEK-293 cells (GAL4-PPARγ / GAL4-luc). To be noted: for PPARg activation (fold) compared with CBG-Q: HEK-293 cells, 6 h treatment, FIG. 1; for PPARg transactivation (luciferase activity, fold induction over untreated cells): increasing doses, 6 h; for increase of PPARg activity: 1 μM concentration.
Data set [3] has as its system N2a cells. Put plainly: Neuroprotection assay, glutamate-induced excitotoxicity in N2a cells. The format is cell-based. The note with it: 1 h pre-incubation, then 5 mM glutamate 24 h, FIG. 5. As for the experimental part:
N2a cells were pre-incubated for 1 h with compounds (II) to (V) and (XII) at the indicated concentrations. Then, cells were treated for 24 h with 5 mM glutamate to induce excitotoxicity, or cytotoxicity in neuronal cells induced by neurotransmitters. Cell viability was quantified by MTT assay. […] Control was set as 100% and data were referred to that value.
Cultured N2A cells were pre-incubated with the compounds II, III, IV, V and XII at the indicated concentrations for 1 h and then treated with 5 mM glutamate to induce excitotoxicity during 24 h (FIG. 5). Cytotoxicity was determined by the MTT method as described in example 3. Results are shown as mean±S.D. from at least three independent experiments, and expressed as percentage of cell viability against the control sample (−). Control was set as 100% and data were referred to that value.

For data set [4], the system named is EAE mice. As to the kind of experiment: Experimental autoimmune encephalomyelitis (EAE), clinical score. It counts as in vivo, C57BL/6 mice. The note with it: 5 mg/kg daily from day 6 post-immunization for 21 days, FIG. 8. As for the experimental part: C57BL/6 mice were immunized with MOG35-55 and their clinical score evaluated daily. Mice were treated daily with compound (III) (10 mg/kg) on day 6 post-immunization and the 21 following days. […] Values are expressed as means±SEM for 10 animals per group.
C57BL/6 mice were immunized with MOG35-55 and their clinical score evaluated daily. Mice were treated daily with compound (XII) (5 mg/kg) on day 6 post-immunization and the 21 following days. […] Values are expressed as means±SEM for 6 animals per group.
EAE was induced in female C57BL/6 mice at 6-8 weeks of age by subcutaneous immunization with myelin oligodendrocyte glycoprotein polypeptide (MOG35-55) (300 μg) and 200 μg of Mycobacterium tuberculosis (H37Ra Difco, Franklin Lakes, N.J., USA) in a 1:1 mix with […] Freund's adjuvant (CFA, Sigma-Aldrich, Madrid, Spain). On the same day and 2 days later, mice were injected intraperitoneally (ip) with 200 ng of pertussis toxin (Sigma-Aldrich, Madrid, Spain) in 0.1 ml PBS. […] Treatment started at day 6 post-immunization (p.i.) and consisted in daily injections of compounds III (FIG. 6) and XII (FIG. 8) at the indicated doses or of the vehicle alone (DMSO/PBS) for the following 21 days. The mice were examined daily for clinical signs of EAE and disease scores were measured as follows: 0, no disease; 1, limp tail; 2, limp tail and hind limb weakness; 3, hind limb paralysis; 4, hind limb and front limb paralysis; 5, moribund and death. All animals were sacrificed 28 days (p.i.) for further analysis. Once sacrificed, animals were dissected and their spinal cords were rapidly removed and quickly frozen in RNAlater (Sigma-Aldric, Germany).

Data set [5] relates to 3NP-lesioned mice. Put plainly: Huntington's disease 3NP model, behavioral score. It counts as in vivo, C57BL/6 mice. To be noted: 10 mg/kg i.p., four injections, FIG. 9. The protocol:
Mice were subjected to behavioral tests for determining their neurological status after the treatment with compounds I (10 mg/kg) (A), III (10 mg/kg) (B) and XII (10 mg/kg) (C). Hind limb clasping, Locomotor activity, Hind limb dystonia and Truncal Dystonia were rated from 0 to 2 based on severity: a score of 0 typically indicates normal function and 2 seriously affected. Values are expressed as means±SEM for 8 animals per group.
(§1) Lesions of the striatum were induced with 3-NP in adult (16 week old; 30 g) male C57BL/6 mice (Harlan Ibérica, Barcelona, Spain). To this end, mice were subjected to seven intraperitoneal (i.p.) injections of 3NP (one injection each 12 hours) at a dose of 50 mg/kg (prepared in phosphate-buffered saline) for 3 days. These animals and their respective non-lesioned controls were used for pharmacological studies with compounds CBG-Q (compound I) and with compounds III and XII (FIG. 9). At least 6-8 animals were used per experimental group. Treatments consisted of four i.p. injections of the compounds at the indicated doses (one injection each 24 hours), or vehicle (DMSO 0.2%, BSA 5% in PBS) 30 min before the injections of 3NP. All animals were euthanized 12 hours after the last 3NP injection. Once euthanized, animals were dissected and their brains were rapidly removed. The right hemisphere was used to dissect the striatum, which was quickly frozen in RNAlater (Sigma-Aldrich, Germany) to analyzed inflammatory markers were by Real Time PCR. The left hemisphere was fixed in fresh 4% paraformaldehyde (in 0.1M phosphate buffered-saline) for 48 hours at 4° C. and embedded in paraffin wax for histological analysis. Mice were subjected to behavioral tests for determining their neurological status. We evaluated the general locomotor activity, the hindlimb clasping and dystonia, and the truncal dystonia. All behavioral tests were conducted prior to drug injections to avoid acute effects of the compounds under investigation.

Data set [6] concerns COX-2, iNOS, TNFα and IL-6. Put plainly: 3NP model, inflammatory marker mRNAs in the striatum (real-time PCR). It counts as in vivo, C57BL/6 mice. To be noted: 3NP-treated mice, 10 mg/kg, FIG. 10 and FIG. 11. As for the experimental part: Gene expression of inflammatory markers including COX-2, TNFα, IL-6 and iNOS, was down regulated in 3NP+compound III (10 mg/kg) treated mice compared with 3NP+Vehicle mice. Expression levels were calculated using the 2^−ΔΔct method. Values are expressed as means±SEM for 6 animals per group.
Gene expression of inflammatory markers including COX-2, TNFα, IL-6 and iNOS, was down regulated in 3NP+XII (10 mg/kg) treated mice compared with 3NP+Vehicle mice. Expression levels were calculated using the 2^−ΔΔct method. Values are expressed as means±SEM for 6 animals per group.
Lesions of the striatum were induced with 3-NP in adult (16 week old; 30 g) male C57BL/6 mice (Harlan Ibérica, Barcelona, Spain). […] The right hemisphere was used to dissect the striatum, which was quickly frozen in RNAlater (Sigma-Aldrich, Germany) to analyzed inflammatory markers were by Real Time PCR. […] We evaluated the general locomotor activity, the hindlimb clasping and dystonia, and the truncal dystonia. […]
Total RNA was isolated from striata (3NP model) or spinal cord (EAE model) using RNeasy Lipid Tissue Mini Kit (Qiagen, GmbH). The total amount of RNA extracted was quantitated by spectrometry at 260 nm and its purity from the ratio between the absorbance values at 260 and 280 nm. […] Expression levels were calculated using the 2^−ΔΔct method.
(In general: In qPCR the cycle at which signal appears reflects the starting amount.)

Data set [7] has as its system striatal neurons, astrocytes and microglia. As to the kind of experiment: 3NP model, immunohistochemistry of striatum (NeuN, GFAP, Iba-1). The note with it: 3NP-lesioned mice, 10 mg/kg. The format is in vivo, C57BL/6 mice. As for the experimental part: NeuN (neuronal marker), GFAP (astrocytes marker), and Ibal (microglia marker) were detected by immunostaining in the coronal sections of striatum of mice treated with vehicle, 3NP+ vehicle, 3NP+compoundXII (10 mg/kg) and XII (10 mg/kg). Quantification of NeuN (A), GFAP (B) and Ibal (C) positive cells in the mouse striatum. Total average number of neurons, astrocytes and microglia is shown. Values are expressed as means±SEM for 6 animals per group.
as §1, with “investigation. […]” for “investigation.”

Where [8] appears, read: text refers to FIG. 1 and FIG. 2.

The structures appear in SMILES notation.

Consider `CCCCCC1=C(NCC(C)C)C(=O)C(C/C=C(\C)CCC=C(C)C)=C(O)C1=O` [Compound V, 6-(3,7-dimethyl-octa-2,6-dienyl)-5-hydroxy-3-pentyl-2-isobutylamino [1,4]benzoquinone], for which the “PPARg activation (fold) compared with CBG-Q” value (“PPARg activation (fold)” for short) in data set [1] and in data set [2] was “higher efficiency than CBG-Q” in each case. The “PPARg transactivation (luciferase activity, fold induction over untreated cells)” value in data set [2] (setting [8]) was “most active compounds”. In addition, the “protection from glutamate-induced cytotoxicity (cell viability, MTT)” value (from here on “protection”) in data set [3] is “protect neuronal cells from glutamate-induced apoptosis”.

On to `CCCCCC1=C(C2=C(CCCCC)C(=O)C(O)=C(C/C=C(\C)CCC=C(C)C)C2=O)C(=O)C(C/C=C(\C)CCC=C(C)C)=C(O)C1=O` [Compound XII, 3,3′-bis((E)-3,7-dimethylocta-2,6-dienyl)-4,4′-dihydroxy-6,6′-dipentyl-1,1′-bi(cyclohexa-3,6-diene)-2,2′,5,5′-tetraone], for which the “clinical symptoms in EAE mice” value in data set [4] was “alleviated the clinical symptoms in EAE mice to the same extent than compound III”. Besides, the “clinical symptoms induced by 3-NP intoxication (hind limb clasping, locomotor activity, hind limb dystonia, truncal dystonia)” value in data set [5] is given as “clearly alleviates such symptomatology”. The “up-regulation of pro-inflammatory markers COX-2, iNOS, TNFα and IL-6 in the striatum” value in data set [6] is recorded as “attenuated the up-regulation”. The “striatal neurons, NeuN staining” value in data set [7] (FIG. 12A) is given as “preservation of striatal neurons”. Also, in data set [7] (FIG. 12B), the “GFAP+ cells (astrocytes) in striatum” value was “counteracted the lost of GFAP^+ cells”. Also, the “reactive microgliosis (Iba-1+ cells) in striatum” value in data set [7] (FIG. 12C) was “prevented the induction of reactive microgliosis”. In addition, in data set [3], the “protection” value is given as “protect neuronal cells from glutamate-induced apoptosis”.

Regarding `CCCCCNC1=C(CCCCC)C(=O)C(O)=C(C/C=C(\C)CCC=C(C)C)C1=O` [Compound IV, 6-(3,7-dimethyl-octa-2,6-dienyl)-5-hydroxy-3-pentyl-2-pentylamino-[1,4]benzoquinone], the “PPARg activation (fold)” value in data set [1] and in data set [2] was “higher efficiency than CBG-Q” throughout. Also, the “PPARg transactivation (luciferase activity, fold induction over untreated cells)” value in data set [2] (setting [8]) is “most active compounds”. In addition, the “protection” value in data set [3] is recorded as “protect neuronal cells from glutamate-induced apoptosis”.

For `CCCCCC1=C(NC)C(=O)C(C/C=C(\C)CCC=C(C)C)=C(O)C1=O` [Compound VII, 6-(3,7-dimethyl-octa-2,6-dienyl)-5-hydroxy-3-pentyl-2-methylamino-[1,4]benzoquinone], the “PPARg activation (fold)” value in data set [2] is on record as “higher efficiency than CBG-Q”.

Take `CCCCCC1=C(NC(C)C)C(=O)C(C/C=C(\C)CCC=C(C)C)=C(O)C1=O` [Compound VIII, 6-(3,7-imethyl-octa-2,6-dienyl)-5-hydroxy-3-pentyl-2-isopropylamino-[1,4]benzoquinone]: in data set [2], the “PPARg activation (fold)” value is given as “higher efficiency than CBG-Q”.

For `CCCCCC1=C(C(=O)OC)C(=O)C(C/C=C(\C)CCC=C(C)C)=C(O)C1=O` [Compound II, 6-(3,7-dimethyl-octa-2,6-dienyl)-5-hydroxy-3-pentyl-2-metoxycarbonil-[1,4]benzoquinone], the “PPARg activation (fold)” value in data set [1] and in data set [2] was “higher efficiency than CBG-Q” in each case. Besides, the “increase of PPARg activity” value in data set [2] (setting [8]) is at most 12 times. Besides, the “potency to activate PPARg compared with CBG-Q” value in data set [2] (concentrations of 1 to 25 μM, text refers to FIG. 1 and FIG. 2) was “significantly more potent than compound CBG-Q”. Moreover, the “protection” value in data set [3] is given as “protect neuronal cells from glutamate-induced apoptosis”.

As to `CN(CCOc1ccc(CC2SC(=O)NC2=O)cc1)c1ccccn1` (centres unmarked) [Rosiglitazone, reference compound], the “increase of PPARg activity” value in data set [2] (setting [8]) is “more than 100 times”.
